Experimental data: patent US20260014194A1, “COMBINATIONS COMPRISING METAP2 INHIBITORS FOR THE TREATMENT OF CANCER” (SynDevRx, Inc., priority 2022, published 2026)

Legend:
[1] = Body weight in MCF-7 tumor-bearing mice; assay type: in vivo, NU/j mice; conditions: FIG. 34; compared to vehicle group; Compound 1 8 mg/kg, inavolisib 25 mg/kg
Procedure: (§1) Animals: Female NU/j mice, 6 weeks of age upon delivery, were received and acclimated at 5 mice per cage for a minimum of 7 days. Mice were housed in autoclaved caging with autoclaved water throughout the course of the study. The animals had free access to food (irradiated chow 2920X) and water. The animals were housed in a temperature and humidity-controlled room with a 12-hour light cycle.
Inavolisib was administered orally (PO) once per day (QD) at an amount of 25 mg/kg for the duration of the study.

MCF-7 cells = assay: MCF-7 mammary fat pad tumor model: tumor volume and tumor growth inhibition; assay type: in vivo, NU/j mice; conditions: inavolisib 25 mg/kg PO QD
Procedure: as §1
Cell Culture: MCF-7 cells were cultured in Dulbecco's Modified Eagle Medium (DMEM) with 10% FBS.
Tumor Cell Implantation: On the day of implantation, cells were washed 1× with phosphate-buffered saline (PBS). Following washing, cells were pelleted (5 min @1000 rpm, RT) and then counted with a hemocytometer. A cell concentration of 5×10^6 per mouse was re-suspended in an appropriate amount of PBS and 1:1 Matrigel (kept on ice until implantation). Forty-eight hours prior to cell implantation, a 17-β estradiol pellet (0.36 mg 60-day slow release pellet) was implanted subcutaneously between the scapulae of each mouse. […]
Tumor Assessment: prior to cell implantation, all animals were ear tagged. Beginning 5 days post cell implantation, tumors were measured two times weekly (length×width) using a wireless Mitutoyo UWAVE-T digital calipers in conjunction with UWAVE-R to record measurements. […] Randomization was determined by tumor volume of all of the mice. […]

C[C@H](Nc1ccc2c(c1)OCCn1cc(N3C(=O)OC[C@H]3C(F)F)nc1-2)C(N)=O [Inavolisib, inavolisib]
Weight loss (body weight change over the study) [1]: increased as compared to the vehicle group
Tumor Growth Inhibition (MCF-7 cells; Day 25, Compound 1 8 mg/kg SC Q4D): 74%
Tumor Volume on Day 25 (MCF-7 cells; starting tumor volume 59 mm^3, Compound 1 8 mg/kg SC Q4D, vehicle 469 mm^3): 167 mm^3
